Source: publication PMC7222207, “Characterization of a CholesteroNitrone (ISQ-201), a Novel Drug Candidate for the Treatment of Ischemic Stroke” (Antioxidants, 2020)
Where two headings read alike, the source gives them in different places.

Tests used:
[1] = system: transient forebrain ischemia, hippocampal CA1 and cortical neurons; assay: Global cerebral ischemia (4VO), neuronal death by Fluoro-Jade B staining; assay type: in vivo, male Wistar rats; details: for maximum neuroprotection (Emax), neuronal death assay: iv at reperfusion onset
Experimental: Transient forebrain ischemia was induced in adult male Wistar rats (10–12 weeks, Charles River) by the standard four-vessel occlusion model (4VO) described previously. Briefly, both vertebral arteries were irreversibly occluded by electrocoagulation under anesthesia, with a mixture of atropine, ketamine, and diazepam (0.25, 62.5, and 5 mg/kg, respectively) delivered through intraperitoneal injection. After 24 h, ischemia was induced by carotid occlusion with atraumatic clips, for 15 min, and then the clips were removed from the carotid arteries to allow reperfusion. Body temperature was maintained at 37 °C during the surgical procedure. The animals were studied after 5 days of reperfusion (R5d) after which they were sacrificed. Sham control animals were prepared in the same way, without carotid occlusion. We performed a power analysis (http://www.biomath.info/power/ttest.htm) to determine the sample size. Significance level and statistical power were set at 0.05 and 0.8 (80%), respectively, which afforded a sample size of […] subjects per group. The treatments were administered with concealed allocation, and in randomized order, according to a computer-generated randomization program. Ischemic animals were treated with a vehicle solution (saline/ethanol, 90:10 vol/vol) or nitrone ISQ-201, dissolved in a vehicle solution through a single intravenous tail injection, when the carotid arteries were unclamped for reperfusion. In therapeutic window experiments, the animals were treated once at the reperfusion onset or at the set reperfusion time points, after ischemia. For the administration, at 6 h and 48 h of reperfusion after ischemia, the animals were anesthetized with isoflurane for 2–3 min and 5 min, respectively, prior to the treatment administration. An independent researcher prepared the treatments for each animal, according to the randomization schedule. Data of each experimental group were normalized to each vehicle control group. All procedures associated with animal experiments were approved by the Animal Care Ethics Committee of the Hospital Universitario Ramón y Cajal (Madrid, Spain, code no. 06/2015) and were performed according to the ARRIVE guidelines.
After 5 days of reperfusion (R5d), the animals were euthanized by transcardiac perfusion, under deep anesthesia. […]
Brain cryosections (10 µm thick) from ischemic animals reperfused for 5 days were used after fixation to detect neuronal death by Fluoro-Jade B staining, and visualized by fluorescence microscopy. Labeled (dead) neuronal cells (in green) were counted, as in TUNEL assay (see below). Data from different animals of each experimental group were independently analyzed by two observers, and treatment information was kept concealed throughout the study.

[2] = Pharmacokinetics study, plasma concentration after intravenous bolus (LC-MS/MS); assay type: in vivo, male Wistar rats; details: rat; for clearance / Vd / k el / half-life / Cmax / AUC(0-t) / C0: male, Wistar; for clearance / Vd / k el / half-life / Cmax / AUC(0-t) / C0 / Clast: plasma; for clearance / Vd / k el / Cmax / AUC(0-t) / C0 / Clast: mean ± SE n=6; for clearance: read-out: Cl (terminal clearance) (converted); for Vd: read-out: Vd (volume of distribution); for k el: read-out: kel (terminal elimination constant) (converted); for half-life: iv; for AUC(0-t): read-out: AUC0–8h; for C0: read-out: C0 (initial concentration)
Experimental: For the study of the variation of the concentration of ISQ-201 in plasma, male Wistar rats (10–12 weeks, Charles River) were randomly divided into three groups (n = 6 per group) and treated intravenously, as a bolus with different concentrations of ISQ-201 (0.07, 0.25, and 1.0 mg/kg, respectively). Plasma samples were taken 0.25, 0.5, 1, 2, 4, and 8 h after the administration and the ISQ-201 concentration was determined by LC–MS/MS analysis. A noncompartmental analysis was performed for the determination of the toxicokinetic parameters, using the Phoenix 64 WinNonlin program (version 8.0). This study was carried out by Swiss BioQuant AG (Reinach, Switzerland).
Study of the variation of ISQ-201 concentration after a single bolus intravenous administration was carried out with different doses of ISQ-201 (0.07, 0.25, and 1.00 mg/kg). Plasma samples were collected 0.25, 0.5, 1, 2, 4, and 8 h after administration, and the ISQ-201 concentration was determined through LC/MS–MS (Figure 7). Pharmacokinetic parameters were calculated through a non-compartmental analysis (Table 2).

## CC(C)[C@H]1CC[C@H]2[C@@H]3CCC4=C/C(=[N+](\C)[O-])CC[C@]4(C)[C@H]3CC[C@]12C [ISQ-201]
[1]; 0.05 mg/kg iv given between 0 and 6 h after reperfusion, CA1 and cortex, evaluated at 5 days
  neuronal death vs vehicle, therapeutic window: significantly decreased
[1]; 0.05 and 0.1 mg/kg iv at reperfusion onset, CA1 and cortex, 5 days of reperfusion
  dead neuron number vs vehicle group: significant reduction
[1]; cortex, most potent concentration, 5 days of reperfusion, vs vehicle = 0%
  maximum neuroprotection (Emax), neuronal death assay: 80%
[1]; hippocampal CA1, most potent concentration, 5 days of reperfusion
  maximum neuroprotection (Emax), neuronal death assay: 31%
[2]; iv bolus 0.07 mg/kg
  clearance: 1.75 mL/min
  Vd: 0.364 ± 0.11 L
  k el: 8.81e-05 s⁻¹
  Cmax: 50.6 ± 7.4 ng/mL
  AUC(0-t): 81.1 ± 9.5 ng·h/mL
  C0: 74.6 ± 12.2 ng/mL
  Clast: 1.53 ± 0.09 ng/mL
[2]; iv bolus 0.25 mg/kg
  clearance: 0.923 mL/min
  Vd: 0.166 ± 0.027 L
  k el: 9.53e-05 s⁻¹
  Cmax: 330 ± 51.2 ng/mL
  AUC(0-t): 477 ± 42 ng·h/mL
  C0: 490 ± 80.2 ng/mL
  Clast: 7.49 ± 0.75 ng/mL
[2]; iv bolus 1.00 mg/kg
  clearance: 0.895 mL/min
  Vd: 0.3 ± 0.103 L
  k el: 7.94e-05 s⁻¹
  Cmax: 1210 ± 300 ng/mL
  AUC(0-t): 2030 ± 429 ng·h/mL
  C0: 1690 ± 424 ng/mL
  Clast: 42.03 ± 4.42 ng/mL
[2]; 0.07 mg/kg, iv bolus 0.07 mg/kg, mean ± SE n=6, read-out: t1/2 (half-life) (converted)
  half-life: 1.66 ± 0.1 h
[2]; 0.25 mg/kg, iv bolus 0.25 mg/kg, mean ± SE n=6, read-out: t1/2 (half-life) (converted)
  half-life: 1.51 ± 0.12 h
[2]; 1 mg/kg, iv bolus 1.00 mg/kg, mean ± SE n=6, read-out: t1/2 (half-life) (converted)
  half-life: 2.2 ± 0.53 h
[2]; iv bolus, 0.07–1.00 mg/kg, read-out: half-life
  half-life: 1.5 to 2 h
[2]; iv bolus, whole studied range 0.07–1.00 mg/kg
  Cmax and AUC0-8h relation to dose: linearly related to the dose
